# Assay results as given in patent US7678807B2, “Isoquinoline and benzo[H] isoquinoline derivatives, preparation and therapeutic use thereof as antagonists of the histamine H3 receptor” (sanofi-aventis, priority 2005, dated 2010).
# Counter-ions that a name gives are not always drawn.
# Molecular target: native histamine H3 receptor (Rattus norvegicus, UniProt Q9QYN8)
# Assay: in vitro affinity assay, specific binding of [3H]-N-α-methylhistamine, adult rat brain membrane preparation
# Conditions: adult rat brain membranes, read-out: Ki with regard to the H3 receptors
# Source text: Thus, the compounds of the invention of formula (I) were subjected to an in vitro affinity assay on the native histamine H3 receptor in an adult rat brain membrane preparation by the specific binding of [^3H]-N-α-methylhistamine to this receptor, according to methods described by Korte, A. et al. in Biochem. Biophys. Res. Commun., 168, 979-986 (1990) and by West, R. E. Jr. et al. in Mol. Pharmacol., 38, 610-613 (1990).
# Chain of native histamine H3 receptor (Q9QYN8 1-397 isoform Q9QYN8-3): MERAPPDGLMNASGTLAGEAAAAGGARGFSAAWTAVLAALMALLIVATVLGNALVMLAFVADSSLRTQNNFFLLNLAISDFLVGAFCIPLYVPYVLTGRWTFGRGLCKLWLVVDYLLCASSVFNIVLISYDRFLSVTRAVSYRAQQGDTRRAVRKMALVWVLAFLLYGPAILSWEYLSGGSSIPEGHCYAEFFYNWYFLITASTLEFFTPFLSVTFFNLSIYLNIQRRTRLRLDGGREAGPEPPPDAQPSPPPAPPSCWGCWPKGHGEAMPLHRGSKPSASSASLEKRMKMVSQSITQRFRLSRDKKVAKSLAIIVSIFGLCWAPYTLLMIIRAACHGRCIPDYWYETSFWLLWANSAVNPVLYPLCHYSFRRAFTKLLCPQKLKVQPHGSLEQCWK
row,SMILES,Ki
1,"CN1CCCC1CCOc1ccc2c(c1)CN(CC1CCCCC1)CC2 (stereo not drawn) [Compound 5, 2-(cyclohexylmethyl)-7-[2-(1-methylpyrrolidin-2-yl)ethoxy]-1,2,3,4-tetrahydroisoquinoline]",0.1 nM

# Molecular target: T1, human histamine H3 receptor (Homo sapiens, UniProt Q9Y5N1)
# T1 construct: expressed in transfected cells; host or cells: CHO cells
# T1 sequence (Q9Y5N1 whole entry): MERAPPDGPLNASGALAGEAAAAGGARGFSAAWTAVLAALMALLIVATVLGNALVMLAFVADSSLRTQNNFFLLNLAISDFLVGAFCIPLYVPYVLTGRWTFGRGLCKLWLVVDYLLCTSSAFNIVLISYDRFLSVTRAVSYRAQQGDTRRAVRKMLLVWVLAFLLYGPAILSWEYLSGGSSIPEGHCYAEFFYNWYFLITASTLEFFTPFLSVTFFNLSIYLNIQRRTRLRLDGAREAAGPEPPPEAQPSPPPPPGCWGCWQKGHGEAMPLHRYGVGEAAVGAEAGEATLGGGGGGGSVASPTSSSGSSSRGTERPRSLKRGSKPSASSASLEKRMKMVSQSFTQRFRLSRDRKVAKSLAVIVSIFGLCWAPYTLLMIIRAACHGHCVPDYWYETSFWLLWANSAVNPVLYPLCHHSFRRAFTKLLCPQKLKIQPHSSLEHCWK
# Assay: cAMP formation assay, inhibition of R-α-methylhistamine agonism, receptor transfected into CHO cells (EIA kit)
# Type: cell-based
# Conditions: EIA kit (Amersham)
# Source text: The compounds of the invention of formula (I) were also subjected to a cAMP formation assay on the human histamine H3 receptor transfected into CHO cells by the inhibition of the agonism brought about by the specific binding of R-α-methylhistamine to this receptor, according to the methods described by Lovenberg, T. W. et al. in J. Pharmacol. Exp. Ther., 293, 771-778 (2000).
row,SMILES,IC50
1,"CN1CCCC1CCOc1ccc2c(c1)CN(CC1CCCCC1)CC2 (stereo not drawn) [Compound 5, 2-(cyclohexylmethyl)-7-[2-(1-methylpyrrolidin-2-yl)ethoxy]-1,2,3,4-tetrahydroisoquinoline]",< 10 nM

# System: not given
# Assay: not given
# Conditions: not given
row,SMILES,melting point
1,CCCN1CCc2ccc(OCCC3CCCCN3C)cc2C1 (stereo not drawn) (as salt: hydrochloride),186 to 190 °C
2,"CN1CCCC1CCOc1ccc2c(c1)CN(Cc1ccccc1)CC2 (stereo not drawn) (as salt: oxalate) [Compound 10, 2-benzyl-7-[2-(1-methylpyrrolidin-2-yl)ethoxy]-1,2,3,4-tetrahydroisoquinoline]",143 to 150 °C
3,"CN1CCCC(Oc2ccc3c(c2)CN(Cc2ccccc2)CC3)CC1 (stereo not drawn) (as salt: oxalate) [Compound 11, 2-benzyl-7-[(1-methylazepan-4-yl)oxy]-1,2,3,4-tetrahydroisoquinoline]",108 to 116 °C
4,"CN1CCCC(Oc2ccc3c(c2)CN(Cc2cccs2)CC3)CC1 (stereo not drawn) (as salt: oxalate) [Compound 12, 7-[(1-methylazepan-4-yl)oxy]-2-(2-thienylmethyl)-1,2,3,4-tetrahydroisoquinoline]",98 to 110 °C
5,"CN1CCCC(Oc2ccc3c4c(ccc3c2)CCN(CC2CCCCC2)C4)CC1 (stereo not drawn) (as salt: oxalate) [Compound 16, 2-(cyclohexylmethyl)-8-[(1-methylazepan-4-yl)oxy]-1,2,3,4-tetrahydrobenzo[h]isoquinoline]",77 to 82 °C
6,CC(C)CN1CCc2ccc(OCCC3CCCN3C)cc2C1 (stereo not drawn) (as salt: tartrate),77 to 80 °C
7,CCCCN1CCc2ccc(OC3CCCN(C)CC3)cc2C1 (stereo not drawn) (as salt: tartrate),96 to 107 °C
8,CCCCN1CCc2ccc(OCCC3CCCN3C)cc2C1 (stereo not drawn) (as salt: tartrate),95 to 105 °C
9,CCCN1CCc2ccc(OC3CCCN(C)CC3)cc2C1 (stereo not drawn) (as salt: tartrate),76 to 97 °C
10,CCCN1CCc2ccc(OCCC3CCCN3C)cc2C1 (stereo not drawn) (as salt: tartrate),66 to 91 °C
11,"CC(C)CCN1CCc2ccc(OCCC3CCCN3C)cc2C1 (stereo not drawn) (as salt: tartrate) [Compound 3, 2-(3-methylbutyl)-7-[2-(1-methylpyrrolidin-2-yl)ethoxy]-1,2,3,4-tetrahydroisoquinoline]",61 to 65 °C
12,"CC(C)CCN1CCc2ccc(OC3CCCN(C)CC3)cc2C1 (stereo not drawn) (as salt: tartrate) [Compound 4, 7-[(1-methylazepan-4-yl)oxy]-2-(3-methylbutyl)-1,2,3,4-tetrahydroisoquinoline]",60 to 70 °C

# Continued, values first:
row,melting point,SMILES
1,190 to 200 °C,"CN1CCC[C@@H]1CCOc1ccc2c(c1)CN(CC1CCCCC1)CC2 (as salt: hydrochloride) [Compound 6, 2-(cyclohexylmethyl)-7-{2-[(2R)-1-methylpyrrolidin-2-yl]ethoxy}-1,2,3,4-tetrahydroisoquinoline]"
2,274 to 277 °C,"CN1CCC[C@@H]1CCOc1ccc2c3c(ccc2c1)CCN(CC1CCCCC1)C3 (as salt: hydrochloride) [Compound 14, 2-(cyclohexylmethyl)-8-{2-[(2R)-1-methylpyrrolidin-2-yl]ethoxy}-1,2,3,4-tetrahydrobenzo[h]isoquinoline]"
3,238 to 241 °C,"CN1CCC[C@H]1CCOc1ccc2c(c1)CN(CC1CCCCC1)CC2 (as salt: hydrochloride) [Compound 18, 2-(Cyclohexylmethyl)-7-(2-[(2S)-1-methylpyrrolidin-2-yl]ethoxy)-1,2,3,4-tetrahydroisoquinoline hydrochloride (1:2)]"
4,195 to 199 °C,"CN1CCC[C@H]1CCOc1ccc2c(c1)CN(CC1CCCCC1)CC2 (as salt: oxalate) [Compound 7, 2-(cyclohexylmethyl)-7-{2-[(2S)-1-methylpyrrolidin-2-yl]ethoxy}-1,2,3,4-tetrahydroisoquinoline]"
5,101 to 111 °C,"CN1CCCCC1CCOc1ccc2c(c1)CN(CC1CCCCC1)CC2 (stereo not drawn) (as salt: oxalate) [Compound 9, 2-(cyclohexylmethyl)-7-[2-(1-methylpiperidin-2-yl)ethoxy]-1,2,3,4-tetrahydroisoquinoline]"
6,271 to 274 °C,"CN1CCC[C@H]1CCOc1ccc2c3c(ccc2c1)CCN(CC1CCCCC1)C3 (as salt: oxalate) [Compound 15, 2-(cyclohexylmethyl)-8-{2-[(2S)-1-methylpyrrolidin-2-yl]ethoxy}-1,2,3,4-tetrahydrobenzo[h]isoquinoline]"
7,124 to 127 °C,"CN1CCCCC1CCOc1ccc2c3c(ccc2c1)CCN(CC1CCCCC1)C3 (stereo not drawn) (as salt: oxalate) [Compound 17, 2-(cyclohexylmethyl)-8-[2-(1-methylpiperidin-2-yl)ethoxy]-1,2,3,4-tetrahydrobenzo[h]isoquinoline]"
